Results taken from patent US20220400676A1, “HERBICIDAL COMPOUNDS” (SYNGENTA CROP PROTECTION AG, priority 2019, published 2022).

Columns and labels:
AMARE = test: Comparative Test (Post-Emergence), weed; assay type: in vivo, Amaranthus retoflexus
Protocol: (§1) Seeds of a variety of test species are sown in standard soil in pots Amaranthus retoflexus (AMARE), Echinochloa crus-galli (ECHCG), Setaria faberi (SETFA)). After cultivation for one day (pre-emergence) or after 8 days cultivation (post-emergence) under controlled conditions in a glasshouse (at 24/16° C., day/night; 14 hours light; 65% humidity), the plants are sprayed with an aqueous spray solution derived from the formulation of the technical active ingredient in acetone/water (50:50) solution containing 0.5% Tween 20 (polyoxyethelyene sorbitan monolaurate, CAS RN 9005-64-5). Compounds are applied at 250 g/ha unless otherwise stated. The test plants are then grown in a glasshouse under controlled conditions in a glasshouse (at 24/16° C., day/night; 14 hours light; 65% humidity) and watered twice daily. After 13 days for pre- and post-emergence, the test is evaluated for the percentage damage caused to the plant. The biological activities are shown in the following table on a five-point scale (5=81-100%; 4=61-80%; 3=41-60%; 2=21-40%; 1=0-20%).

ZEAMX = test: Comparative Test (Post-Emergence), crop; assay type: in vivo, corn
[1] = system: Amaranthus retoflexus (AMARE); test: Pre-emergence herbicidal glasshouse test; assay type: in vivo; conditions: 250 g/ha, evaluated after 13 days
Protocol: as §1

[2] = system: Echinochloa crus-galli (ECHCG); test: Pre-emergence herbicidal glasshouse test; assay type: in vivo; conditions: 250 g/ha, evaluated after 13 days
Protocol: as §1

Setaria faberi (SETFA) [3] = test: Pre-emergence herbicidal glasshouse test; assay type: in vivo; conditions: 250 g/ha, evaluated after 13 days
Protocol: as §1

[4] = system: Amaranthus retoflexus (AMARE); test: Post-emergence herbicidal glasshouse test; assay type: in vivo; conditions: 250 g/ha, evaluated after 13 days
Protocol: as §1

[5] = system: Echinochloa crus-galli (ECHCG); test: Post-emergence herbicidal glasshouse test; assay type: in vivo; conditions: 250 g/ha, evaluated after 13 days
Protocol: as §1

Setaria faberi (SETFA) [6] = test: Post-emergence herbicidal glasshouse test; assay type: in vivo; conditions: 250 g/ha, evaluated after 13 days
Protocol: as §1

Row | SMILES | % Phytotoxicity AMARE (AMARE; rate 16 g/ha) [%] | % Phytotoxicity AMARE (AMARE; rate 63 g/ha) [%] | % Phytotoxicity AMARE (AMARE; rate 250 g/ha) [%] | % Phytotoxicity ZEAMX (ZEAMX; rate 16 g/ha) [%] | % Phytotoxicity ZEAMX (ZEAMX; rate 63 g/ha) [%] | % Phytotoxicity ZEAMX (ZEAMX; rate 250 g/ha) [%] | % Phytotoxicity AMARE (AMARE; rate 33 g/ha) [%] | % Phytotoxicity ZEAMX (ZEAMX; rate 33 g/ha) [%] | percentage damage caused to the plant, five-point scale, AMARE [1] | percentage damage caused to the plant, five-point scale, ECHCG [2] | percentage damage caused to the plant, five-point scale, SETFA (Setaria faberi (SETFA) [3]) | percentage damage caused to the plant, five-point scale, AMARE [4] | percentage damage caused to the plant, five-point scale, ECHCG [5] | percentage damage caused to the plant, five-point scale, SETFA (Setaria faberi (SETFA) [6])
1 | COc1ccnc(Oc2cccc(F)c2-c2cc(C(F)F)no2)n1 | 0 | 10 | 20 | 0 | 10 | 20 | – | – | – | – | – | – | – | –
2 | COc1cc(OC)nc(Oc2cccc(F)c2-c2cc(C(F)F)no2)n1 | 0 | – | 0 | 0 | – | 0 | 0 | 0 | – | – | – | – | – | –
3 | CNc1ncnc(Oc2cccc(F)c2-c2cc(C(F)F)no2)c1Cl [Compound 2.002] | – | – | – | – | – | – | – | – | 2 (2=21-40%) | 1 (1=0-20%) | 1 (1=0-20%) | 2 (2=21-40%) | 1 (1=0-20%) | 1 (1=0-20%)
4 | COc1cc(Oc2cccc(Br)c2-c2cc(C(F)F)no2)ncn1 [Compound 2.003] | – | – | – | – | – | – | – | – | 5 (5=81-100%) | 5 (5=81-100%) | 5 (5=81-100%) | 3 (3=41-60%) | 4 (4=61-80%) | 4 (4=61-80%)
5 | COc1cc(Oc2cccc(Cl)c2-c2cc(C(F)F)no2)ncn1 [Compound 2.004] | – | – | – | – | – | – | – | – | 5 (5=81-100%) | 5 (5=81-100%) | 5 (5=81-100%) | 4 (4=61-80%) | 4 (4=61-80%) | 4 (4=61-80%)
6 | CNc1cc(Oc2cccc(F)c2-c2cc(C(F)F)no2)ncn1 [Compound 2.005] | – | – | – | – | – | – | – | – | 2 (2=21-40%) | 2 (2=21-40%) | 2 (2=21-40%) | 2 (2=21-40%) | 2 (2=21-40%) | 2 (2=21-40%)
7 | Cc1cc(Oc2cccc(Br)c2-c2cc(C(F)F)no2)ncn1 [Compound 2.006] | – | – | – | – | – | – | – | – | 2 (2=21-40%) | 5 (5=81-100%) | 4 (4=61-80%) | 1 (1=0-20%) | 3 (3=41-60%) | 3 (3=41-60%)
8 | Cc1cc(Oc2cccc(Cl)c2-c2cc(C(F)F)no2)ncn1 [Compound 2.007] | – | – | – | – | – | – | – | – | 4 (4=61-80%) | 5 (5=81-100%) | 5 (5=81-100%) | 2 (2=21-40%) | 4 (4=61-80%) | 4 (4=61-80%)
9 | Cc1ncnc(Oc2cccc(F)c2-c2cc(C(F)F)co2)c1F [Compound 2.008] | – | – | – | – | – | – | – | – | 4 (4=61-80%) | 4 (4=61-80%) | 4 (4=61-80%) | 3 (3=41-60%) | 1 (1=0-20%) | 1 (1=0-20%)
10 | COc1cc(Oc2cccc(F)c2-c2cc(C(F)F)no2)ncn1 [Compound 2.017, 3-(difluoromethyl)-5-[2-fluoro-6-(6-methoxypyrimidin-4-yl)oxy-phenyl]isoxazole] | – | – | – | – | – | – | – | – | 5 (5=81-100%) | 5 (5=81-100%) | 5 (5=81-100%) | 4 (4=61-80%) | 4 (4=61-80%) | 4 (4=61-80%)
11 | COc1cc(Oc2cccc(F)c2-c2cc(C(F)F)no2)ncn1 [drawing 58] | 60 | 60 | 80 | 0 | 10 | 10 | – | – | – | – | – | – | – | –
